According to patent US20080241904A1, “PROCESS FOR PRODUCING ISOMALTOSE AND USES THEREOF” (KABUSHIKI KAISHA HAYASHIBARA SEIBUTSU KAGAKU KENKYUJO, priority 2001, published 2008):

How the values were obtained:
[1] = tested on: α-isomaltosylglucosaccharide-forming enzyme; test: Influence of metal ions on activity of α-isomaltosylglucosaccharide-forming enzyme (Strain C9); assay type: biochemical, Bacillus globisporus C9; conditions: for Effect on enzyme activity (in words): 1 mM, summary of Table 2; for Relative activity: in the presence of 1 mM of each metal ion, None = 100
Method: The activities of these enzymes were assayed as follows: The α-isomaltosylglucosaccharide-forming enzyme of the present invention was assayed for enzymatic activity by dissolving maltotriose in 100 mM acetate buffer (pH 6.0) to give a concentration of 2% (w/v) for a substrate solution, adding a 0.5 ml of an enzyme solution to a 0.5 ml of the substrate solution, enzymatically reacting the mixture solution at 35° C. for 60 min, suspending the reaction mixture by heating at 100° C. for 10 min, and quantifying maltose, among the isomaltosyl maltose and maltose formed in the reaction mixture, by high-performance liquid chromatography (abbreviated as “HPLC” hereinafter). HPLC was carried out using “YMC PACK ODS-AQ303 column” commercialized by YMC Co., Ltd., Tokyo, Japan, at a column temperature of 40° C. and a flow rate of 0.5 ml/min of water; and using “RI-8012”, a differential refractometer commercialized by Tosoh Corporation, Tokyo, Japan. One unit activity of the α-isomaltosylglucosaccharide-forming enzyme is defined as the enzyme amount that forms one micromole of maltose per minute under the above enzymatic reaction conditions.
The influence of metal ions on the activity of α-isomaltosylglucosaccharide-forming enzyme was examined in the presence of 1 mM of each metal-ion according to the assay for the enzyme activity.

[2] = tested on: α-isomaltosyl-transferring enzyme; test: Influence of metal ions on activity of α-isomaltosyl-transferring enzyme (Strain C9); assay type: biochemical, Bacillus globisporus C9; conditions: for Relative activity: in the presence of 1 mM of each metal ion, None = 100
Method: (§1) The α-isomaltosyl-transferring enzyme was assayed for enzymatic activity by dissolving panose in 100 mM acetate buffer (pH 6.0) to give a concentration of 2% (w/v) for a substrate solution, adding a 0.5 ml of an enzyme solution to 0.5 ml of the substrate solution, enzymatically reacting the mixture solution at 35° C. for 30 min, suspending the reaction mixture by boiling for 10 min, and quantifying glucose, among the cyclotetrasaccharide and glucose formed in the reaction mixture, by the glucose oxidase method. One unit activity of the α-isomaltosyl-transferring enzyme is defined as the enzyme amount that forms one micromole of glucose per minute under the above enzymatic reaction conditions.
(§2) The influence of metal ions on the activity of α-isomaltosyl-transferring enzyme was examined in the presence of 1 mM of each metal-ion according to the assay for the enzyme activity.

[3] = tested on: α-isomaltosylglucosaccharide-forming enzyme; test: Influence of metal ions on enzyme activity, Experiment 4-2 (Strain C11); assay type: biochemical, Bacillus globisporus C11; conditions: for Effect on enzyme activity (in words): 1 mM, summary of Table 6; for Relative activity: in the presence of 1 mM of each metal ion, None = 100
[4] = tested on: α-isomaltosyl-transferring enzyme; test: Influence of metal ions on activity of α-isomaltosyl-transferring enzyme (Strain C11); assay type: biochemical, Bacillus globisporus C11; conditions: for Relative activity: in the presence of 1 mM of each metal ion, None = 100
Method: as §1, §2

Row | Effect on enzyme activity (in words) [1] | Relative activity [1] [%] | Relative activity [2] [%] | Effect on enzyme activity (in words) [3] | Relative activity [3] [%] | Relative activity [4] [%] | Compound | Effect on enzyme activity (in words) ([2]; 1 mM, summary of Table 4) | Effect on enzyme activity (in words) ([4]; 1 mM, summary of Table 8)
1 | activated | 111 | 106 | activated | 142 | 93 | [Mn+2] [Mn^2+] |  | 
2 | inhibited | 80 | 101 | inhibited | 83 | 93 | [Sr+2] [Sr^2+] |  | 
3 |  | 92 | 88 |  | 91 | 83 | [Zn+2] [Zn^2+] |  | 

Second part, the molecule before the results:

Row | Compound | Effect on enzyme activity (in words) [1] | Relative activity [1] [%] | Relative activity [2] [%] | Effect on enzyme activity (in words) [3] | Relative activity [3] [%] | Relative activity [4] [%] | Effect on enzyme activity (in words) ([2]; 1 mM, summary of Table 4) | Effect on enzyme activity (in words) ([4]; 1 mM, summary of Table 8)
4 | [Hg+2] [Hg^2+] | greatly inhibited | 4 | 1 | greatly inhibited | 4 | 2 | greatly inhibited | greatly inhibited
5 | [Pb+2] [Pb^2+] |  | 103 | 89 |  | 101 | 74 |  | 
